According to ChEMBL document CHEMBL1201862, “PubChem BioAssay data set” (2004):
Activity calls are given as the source filed them.

What was measured:
[1] = viability of HCT116 lacking mutant beta-catenin – cell-based, human colon tumor, dose response (AID 1045); assay type: functional;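 further: HCT116 colon tumor cells with beta catenin knocked out; cells exposed to compound for 60 hours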
[2] = viability of PTEN-deleted HCT116 cells – cell-based, HCT116 PTEN knockout, dose response (AID 1047); assay type: functional;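 further: HCT116 colon tumor cells with PTEN knocked out; cells exposed to compound for 60 hours before readout; potency for loss of cell viability measured by luminescence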
INS1 = experiment: INS-1E survival protection against cytokine death – cell-based, luminescence, retest, dose response (AID 449756); assay type: functional; details: Rattus norvegicus;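 further: cell death triggered by IL-1 beta plus TNF-alpha plus IFN-gamma mixture; protective hits raise ATP signal compared with cytokine alone wells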
Leucine aminopeptidase = molecular target: T1, Leucine aminopeptidase (Plasmodium falciparum 3D7, UniProt Q8IL11); experiment: P. falciparum M17LAP inhibitors, primary screen, biochemical, fluorogenic H-Leu-NHMec substrate, 1536-well (AID 1619); assay type: functional
T1 sequence (Q8IL11 whole entry): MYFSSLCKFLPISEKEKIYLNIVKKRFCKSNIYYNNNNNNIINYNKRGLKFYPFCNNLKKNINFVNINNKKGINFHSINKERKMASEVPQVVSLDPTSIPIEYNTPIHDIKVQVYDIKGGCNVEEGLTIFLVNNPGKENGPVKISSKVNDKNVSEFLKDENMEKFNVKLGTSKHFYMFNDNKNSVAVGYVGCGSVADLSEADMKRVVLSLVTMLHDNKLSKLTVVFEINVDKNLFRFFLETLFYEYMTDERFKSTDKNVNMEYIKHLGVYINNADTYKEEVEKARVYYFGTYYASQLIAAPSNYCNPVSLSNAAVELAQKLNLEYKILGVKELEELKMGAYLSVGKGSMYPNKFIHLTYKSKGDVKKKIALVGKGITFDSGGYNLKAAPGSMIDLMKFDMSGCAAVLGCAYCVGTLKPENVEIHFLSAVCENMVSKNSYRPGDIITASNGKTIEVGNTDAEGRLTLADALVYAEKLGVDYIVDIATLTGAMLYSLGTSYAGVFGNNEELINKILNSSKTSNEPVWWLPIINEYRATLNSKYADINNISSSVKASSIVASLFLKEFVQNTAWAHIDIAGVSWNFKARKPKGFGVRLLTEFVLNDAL

[3] = molecular target: T2, Polyadenylate-binding protein 1 (Homo sapiens, UniProt P11940); experiment: MLLE binding blockers, Cy5 peptide tracer – biochemical, fluorescence polarization, Cy5-PAM2 peptide, secondary, miRNA deadenylation inhibitor project, dose response (AID 602260); assay type: functional; details: read-out: IC50_Mean
[4] = molecular target: T2, Polyadenylate-binding protein 1; experiment: MLLE domain peptide-binding blockers, IC50 – biochemical, fluorescence polarization, FITC-PAM2 peptide, dose response (AID 602259); assay type: functional; details: read-out: IC50_Mean
Cytochrome P450 2C9 = Cytochrome P450 2C9 (Homo sapiens, UniProt P11712)
Streptococcus = experiment: GAS UMAA2166 growth inhibition – luminescence, BacTiterGlo, counter-screen for streptokinase expression inhibitor project, dose response (AID 1915); assay type: functional, organism-based;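 further: potency for reduction of bacterial viability or growth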
[5] = alpha-synuclein stem-loop luciferase translation blockers – H4 neuroglioma cells, luminescence, confirmation (AID 1988); assay type: functional, cell-based
[6] = Luminescence Cell-Based Dose Retest to Confirm Inhibitors of Cancer Stem Cells. [Related pubchem assays (depositor defined):AID2717, AID2721]; assay type: functional; details: Homo sapiens
Cytochrome P450 1A2 = molecular target: T3, Cytochrome P450 1A2 (Homo sapiens, UniProt P05177);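 further: PubChem cytochrome P450 panel assay, CYP1A2 panel member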
T3 sequence (P05177 whole entry): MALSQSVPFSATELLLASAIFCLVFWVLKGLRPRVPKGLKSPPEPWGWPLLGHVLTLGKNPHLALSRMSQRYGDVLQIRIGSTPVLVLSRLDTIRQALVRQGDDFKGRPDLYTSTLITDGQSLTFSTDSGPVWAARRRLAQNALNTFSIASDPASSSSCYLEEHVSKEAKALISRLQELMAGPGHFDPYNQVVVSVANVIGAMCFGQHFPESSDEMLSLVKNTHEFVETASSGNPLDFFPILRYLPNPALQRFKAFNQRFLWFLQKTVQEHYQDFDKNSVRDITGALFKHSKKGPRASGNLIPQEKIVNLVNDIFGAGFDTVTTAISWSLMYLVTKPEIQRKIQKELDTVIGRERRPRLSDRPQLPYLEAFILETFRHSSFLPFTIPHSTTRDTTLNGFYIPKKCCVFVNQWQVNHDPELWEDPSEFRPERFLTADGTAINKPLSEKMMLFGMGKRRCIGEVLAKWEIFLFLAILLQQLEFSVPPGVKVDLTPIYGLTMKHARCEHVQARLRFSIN

[7] = system: Streptococcus sp. 'group A'; experiment: Streptococcus pyogenes SK(-)GAS viability under kanamycin – luminescence, BacTiterGlo, confirmation, counter-screen for streptokinase expression inhibitor project, dose response (AID 1900); assay type: functional, organism-based
[8] = Luminescence Cell-Based Dose Response HTS to Identify Inhibitors of 5'UTR Stem-Loop Driven Prion Protein mRNA Translation in H4 Neuroglioblastoma Cells. [Related pubchem assays: 1827 (Project Summary), 1813 (Primary HTS)]; assay type: functional
[9] = luciferase reporter signal suppression in cells – H4 neuroglioma cells, luminescence, dose response (AID 1990); assay type: functional, cell-based
Streptokinase A = molecular target: T4, Streptokinase A (Streptococcus pyogenes serotype M1, UniProt P10520); experiment: viability-normalized secreted streptokinase activity reduction – plasminogen activation absorbance, OD405, dose response (AID 1914); assay type: functional, Streptococcus pyogenes M1 GAS;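 further: secreted streptokinase activity via plasminogen activation per viability signal from cell pellet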
T4 sequence (P10520 whole entry): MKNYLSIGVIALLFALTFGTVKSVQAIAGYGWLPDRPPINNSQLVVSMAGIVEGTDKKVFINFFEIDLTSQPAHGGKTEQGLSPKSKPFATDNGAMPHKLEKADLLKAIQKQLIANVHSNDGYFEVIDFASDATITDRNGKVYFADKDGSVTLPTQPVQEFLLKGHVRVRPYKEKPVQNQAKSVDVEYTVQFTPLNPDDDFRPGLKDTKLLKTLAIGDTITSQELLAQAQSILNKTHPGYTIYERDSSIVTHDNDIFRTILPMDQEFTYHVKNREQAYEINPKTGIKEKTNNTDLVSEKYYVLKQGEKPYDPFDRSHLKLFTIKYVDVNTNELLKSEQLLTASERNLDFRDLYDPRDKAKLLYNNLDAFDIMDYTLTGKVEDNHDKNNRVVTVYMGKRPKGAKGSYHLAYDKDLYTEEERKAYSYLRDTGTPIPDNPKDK

[10] = molecular target: T5, Zinc finger protein mex-5 (Caenorhabditis elegans, UniProt Q9XUB2); experiment: potency of MEX-5 RNA-binding blockers – biochemical, C. elegans, fluorescence polarization, dose response (AID 1960)
T5 sequence (Q9XUB2 whole entry): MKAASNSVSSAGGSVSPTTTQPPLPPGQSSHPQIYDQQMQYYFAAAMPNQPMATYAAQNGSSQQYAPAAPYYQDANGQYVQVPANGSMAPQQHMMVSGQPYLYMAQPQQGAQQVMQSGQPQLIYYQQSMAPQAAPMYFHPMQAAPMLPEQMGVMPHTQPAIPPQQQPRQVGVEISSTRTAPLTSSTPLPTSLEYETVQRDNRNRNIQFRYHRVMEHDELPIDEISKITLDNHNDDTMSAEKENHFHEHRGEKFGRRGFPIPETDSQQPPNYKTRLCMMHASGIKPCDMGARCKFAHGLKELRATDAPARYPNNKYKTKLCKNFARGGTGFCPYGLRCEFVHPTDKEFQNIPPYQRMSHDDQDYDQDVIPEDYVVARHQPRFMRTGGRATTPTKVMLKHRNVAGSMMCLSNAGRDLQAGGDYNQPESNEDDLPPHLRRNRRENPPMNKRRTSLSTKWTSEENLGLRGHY

[11] = molecular target: T6, RNA-binding protein pos-1 (Caenorhabditis elegans, UniProt G5EF15); experiment: disruptors of C. elegans POS-1 RNA interaction – biochemical, fluorescence polarization, dose response (AID 1964);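 further: purified POS-1 fused to maltose binding protein made in E. coli; potency of compounds blocking POS-1 binding to fluorescent RNA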
T6 sequence (G5EF15 whole entry): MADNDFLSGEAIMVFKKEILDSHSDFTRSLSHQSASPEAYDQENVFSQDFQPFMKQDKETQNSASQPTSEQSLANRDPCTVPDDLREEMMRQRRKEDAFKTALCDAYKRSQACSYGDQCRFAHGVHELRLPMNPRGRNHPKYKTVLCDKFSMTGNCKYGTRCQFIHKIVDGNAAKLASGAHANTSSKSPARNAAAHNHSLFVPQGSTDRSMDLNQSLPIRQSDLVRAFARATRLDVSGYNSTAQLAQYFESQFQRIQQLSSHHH

Cytochrome P450 2D6 = Cytochrome P450 2D6 (Homo sapiens, UniProt P10635);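 further: CYP2D6 member of a cytochrome P450 panel assay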
[12] = molecular target: Luciferin 4-monooxygenase (Photinus pyralis, UniProt P08659); experiment: inhibition of purified Photinus pyralis luciferase – biochemical, luminescence, dose response (AID 1891)
[13] = Luminescence Cell-Based Dose Confirmation HTS to Identify Inhibitors of Platelet Dense Granule Release. [Related pubchem assays: 1663 (Primary HTS), 1678 (Summary of Project)]; assay type: functional
Cytochrome P450 2C19 = Cytochrome P450 2C19 (Homo sapiens, UniProt P33261); experiment: Cytochrome panel assay with activity outcomes. Panel member name: p450-cyp2c19 Compounds with AC50 equal or less than 10 uM are considered active; assay type: functional
[14] = viability of uninfected HEp-2 cells – cell-based, HTS, cytotoxicity control for RSV inhibitor project, dose response (AID 2410); assay type: functional; details: human respiratory syncytial virus
[15] = reduction of Shn3 3'UTR-driven luciferase in osteoblasts – cell-based, Clone20 osteoblasts, firefly luciferase, cherry-picked, dose response (AID 624132); assay type: functional;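 further: firefly luciferase luminescence from reporter carrying the Shn3 3'UTR in osteoblasts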
[16] = non-specific 3'UTR reporter inhibition in Clone20-Shn3RL – cell-based, Renilla luciferase, cherry-picked, counter-screen for Shn3 inhibitor project, dose response (AID 624133); assay type: functional

Sequence of Cytochrome P450 2C9 (P11712 whole entry): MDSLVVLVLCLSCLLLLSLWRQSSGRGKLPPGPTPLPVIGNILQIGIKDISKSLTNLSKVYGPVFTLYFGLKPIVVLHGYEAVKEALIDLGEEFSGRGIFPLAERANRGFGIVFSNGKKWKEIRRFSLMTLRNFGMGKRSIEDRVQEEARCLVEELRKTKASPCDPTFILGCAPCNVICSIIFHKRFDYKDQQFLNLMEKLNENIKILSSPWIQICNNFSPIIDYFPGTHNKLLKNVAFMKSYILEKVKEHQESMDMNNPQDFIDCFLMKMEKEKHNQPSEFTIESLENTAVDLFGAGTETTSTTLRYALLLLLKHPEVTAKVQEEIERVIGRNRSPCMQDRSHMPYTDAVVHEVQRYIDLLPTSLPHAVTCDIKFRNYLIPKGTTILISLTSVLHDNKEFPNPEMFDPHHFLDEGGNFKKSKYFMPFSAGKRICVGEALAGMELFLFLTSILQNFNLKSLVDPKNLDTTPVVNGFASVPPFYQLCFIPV
T2 sequence (P11940 whole entry, the tested form may be a part): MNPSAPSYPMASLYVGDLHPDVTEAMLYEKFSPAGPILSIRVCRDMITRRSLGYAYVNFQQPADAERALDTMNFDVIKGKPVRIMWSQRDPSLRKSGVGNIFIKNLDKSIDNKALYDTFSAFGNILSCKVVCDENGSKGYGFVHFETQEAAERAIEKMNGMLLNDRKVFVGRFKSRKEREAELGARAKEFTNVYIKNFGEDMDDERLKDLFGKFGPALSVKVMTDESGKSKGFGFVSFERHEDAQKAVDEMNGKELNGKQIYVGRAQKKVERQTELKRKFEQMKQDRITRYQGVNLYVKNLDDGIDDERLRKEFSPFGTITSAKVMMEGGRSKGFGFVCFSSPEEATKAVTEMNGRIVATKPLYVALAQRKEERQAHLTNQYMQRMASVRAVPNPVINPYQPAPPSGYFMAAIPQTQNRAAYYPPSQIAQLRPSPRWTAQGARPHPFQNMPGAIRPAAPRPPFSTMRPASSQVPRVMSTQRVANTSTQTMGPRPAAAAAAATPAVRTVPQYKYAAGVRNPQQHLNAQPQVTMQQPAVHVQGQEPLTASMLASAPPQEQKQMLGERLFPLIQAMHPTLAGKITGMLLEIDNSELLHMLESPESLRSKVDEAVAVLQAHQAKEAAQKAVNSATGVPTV
Sequence of Cytochrome P450 2C19 (P33261 whole entry): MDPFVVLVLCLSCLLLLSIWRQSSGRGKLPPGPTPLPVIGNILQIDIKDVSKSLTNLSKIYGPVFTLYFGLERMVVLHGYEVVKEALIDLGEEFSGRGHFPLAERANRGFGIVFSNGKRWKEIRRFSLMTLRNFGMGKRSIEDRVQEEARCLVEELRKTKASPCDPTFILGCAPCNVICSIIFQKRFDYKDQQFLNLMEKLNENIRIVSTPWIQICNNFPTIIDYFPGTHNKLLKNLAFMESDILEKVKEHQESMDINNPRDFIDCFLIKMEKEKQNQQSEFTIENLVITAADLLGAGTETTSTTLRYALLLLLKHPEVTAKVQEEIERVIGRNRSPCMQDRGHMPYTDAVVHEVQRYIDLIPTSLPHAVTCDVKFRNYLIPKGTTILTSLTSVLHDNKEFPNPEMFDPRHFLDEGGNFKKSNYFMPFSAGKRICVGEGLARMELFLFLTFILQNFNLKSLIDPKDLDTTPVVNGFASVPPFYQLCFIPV
Sequence of Luciferin 4-monooxygenase (P08659 whole entry): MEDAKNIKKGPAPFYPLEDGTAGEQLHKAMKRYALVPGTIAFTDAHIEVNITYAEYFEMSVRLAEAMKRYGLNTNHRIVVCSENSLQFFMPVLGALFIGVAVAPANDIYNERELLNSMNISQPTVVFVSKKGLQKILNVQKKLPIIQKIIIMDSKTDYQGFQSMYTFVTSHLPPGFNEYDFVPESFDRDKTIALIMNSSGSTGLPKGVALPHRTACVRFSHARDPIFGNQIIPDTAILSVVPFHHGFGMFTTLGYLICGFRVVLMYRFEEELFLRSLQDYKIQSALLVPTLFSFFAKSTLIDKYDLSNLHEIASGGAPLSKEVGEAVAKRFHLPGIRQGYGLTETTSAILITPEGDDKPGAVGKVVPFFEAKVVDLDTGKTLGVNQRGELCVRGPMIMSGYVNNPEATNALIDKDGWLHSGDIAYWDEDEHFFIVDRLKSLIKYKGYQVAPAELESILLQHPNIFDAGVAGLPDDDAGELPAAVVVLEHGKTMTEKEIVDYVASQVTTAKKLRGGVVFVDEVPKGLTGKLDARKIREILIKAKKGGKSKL
Sequence of Cytochrome P450 2D6 (P10635 whole entry): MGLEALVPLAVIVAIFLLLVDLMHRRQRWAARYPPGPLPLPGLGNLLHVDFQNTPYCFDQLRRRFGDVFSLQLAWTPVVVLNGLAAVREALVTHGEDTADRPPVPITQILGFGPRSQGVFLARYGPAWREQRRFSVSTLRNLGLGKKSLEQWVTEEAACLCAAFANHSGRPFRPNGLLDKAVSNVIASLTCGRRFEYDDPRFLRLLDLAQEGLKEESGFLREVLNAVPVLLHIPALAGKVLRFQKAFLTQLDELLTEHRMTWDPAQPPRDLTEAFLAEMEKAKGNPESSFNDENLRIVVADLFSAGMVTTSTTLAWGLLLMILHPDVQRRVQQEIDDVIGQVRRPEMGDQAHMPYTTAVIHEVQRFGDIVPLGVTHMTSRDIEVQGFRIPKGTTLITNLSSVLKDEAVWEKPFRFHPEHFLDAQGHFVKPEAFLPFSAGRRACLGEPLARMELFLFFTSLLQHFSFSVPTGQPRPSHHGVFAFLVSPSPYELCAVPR

O=C(c1cccc(Cl)c1)c1nn(-c2ccccc2)c(=O)cc1C(F)(F)F
EC50 [1]: 12.3 µM (active) | EC50 [2]: 10.6 µM (active) | AC50 (INS1): 23.8 µM (active)

COc1cccc2c(=O)n(CC(=O)N3CCC(C)CC3)ccc12
IC50 (Leucine aminopeptidase): 42.5 µM (active)

CCCCc1ccc(NC(=O)N[C@H](C(=O)O)C(C)CC)cc1 (stereo partly specified)
IC50 (Leucine aminopeptidase): 6.31 µM (active)

Cc1ccccc1C(=O)Nc1ccc2c(C#N)c3nc4ccccc4nc3n2c1
EC50 [1]: 5.34 µM (active) | EC50 [2]: 6.62 µM (active)

O=[N+]([O-])c1cccc(C(=S)N2CCN(c3ccccc3F)CC2)c1
IC50 [3]: > 66 µM (inactive) | IC50 [4]: > 66 µM (inactive)

CC(C)(C)n1nc2c(c1NC(=O)c1cc3ccccc3o1)CSC2
IC50 [3]: > 66 µM (inactive) | IC50 [4]: > 66 µM (inactive)

CCc1c(C)sc(NC(=O)c2ccco2)c1C(=O)N1CCOCC1
IC50 [3]: > 66 µM (inactive) | IC50 [4]: > 66 µM (inactive)

O=C1c2cccc3c(Cl)ccc(c23)C(=O)N1O
AC50 (Cytochrome P450 2C9): inconclusive

CCN(CC)c1ccc(C(=O)OCc2cc(=O)oc3cc(O)ccc23)cc1
EC50 (Streptococcus): > 150 µM (not active) | EC50 [5]: 10.5 µM (active) | AC50 (Cytochrome P450 2C9): inconclusive | AC50 [6]: 4.72 µM (active) | AC50 (Cytochrome P450 1A2): 2.24 µM (inconclusive) | EC50 [7]: 16.1 µM (active) | EC50 [1]: 5.62 µM (active) | EC50 [8]: > 120 µM (not active) | EC50 [9]: 9 µM (active) | EC50 [2]: 7.3 µM (active) | EC50 (Streptokinase A): 128 µM (active)

Cn1c(Cc2cccc3ccccc23)nnc1SCC(=O)N1CCN(c2ccccc2)CC1
AC50 (Cytochrome P450 2C9): inconclusive

CCOC(=O)c1c(-c2ccccc2)csc1NC(=O)/C(C#N)=C/c1ccc(OC)c(OC)c1
EC50 [10]: > 300 µM (not active) | EC50 [11]: > 300 µM (not active)

COC(=O)c1ccc(NCC(=O)N2CCCCCC2)cc1
IC50 (Leucine aminopeptidase): 40.3 µM (active)

O=C(CN1C(=O)C2C3C=CC(C4CC34)C2C1=O)Nc1cnc2ccccc2c1 (stereo unspecified)
IC50 (Leucine aminopeptidase): 21.7 µM (active)

O=C(NC(=S)Nc1ccc2c(c1)OCCO2)c1ccccc1
IC50 [3]: > 66 µM (inactive) | IC50 [4]: > 66 µM (inactive)

COc1cc(C(=O)NCc2cccc3ccccc23)cc(Cl)c1OC
AC50 (Cytochrome P450 2D6): 15.8 µM (inconclusive) | AC50 (Cytochrome P450 2C9): inconclusive

CCOc1ccc(C2OC34CCCCC3C(C#N)(C#N)C2(C#N)C(=N)O4)cc1OC (stereo unspecified)
EC50 [10]: 10.5 µM (active) | EC50 [11]: 11.8 µM (active)

COc1ccc(/C(C)=C2\SC(=S)N(CCC(=O)O)C2=O)cc1
IC50 (Leucine aminopeptidase): 30.1 µM (active)

COCCCNC(=O)Cn1nc(-c2ccccc2OC)ccc1=O
EC50 [12]: > 112 µM (not active) | AC50 (Cytochrome P450 2C9): inconclusive | EC50 [13]: > 112 µM (not active) | AC50 (Cytochrome P450 2C19): inconclusive

CSc1nc(C2CC2)cc(-c2cccs2)c1C#N
CC50 [14]: 11.8 µM (active) | AC50 (Cytochrome P450 2C9): inconclusive | AC50 (Cytochrome P450 2C19; read-out: AC50): 1.26 µM (inconclusive)

CCCc1ccc(C(=O)NNc2cc(Cl)ccc2Cl)cc1
AC50 [15]: 2.59 µM (active) | AC50 [16]: 10.1 µM (active)

CCCc1nnc(NC(=O)CN2C(=O)C3C4C=CC(C4)C3C2=O)s1 (stereo unspecified)
AC50 (Cytochrome P450 2C9): inconclusive | AC50 (Cytochrome P450 2C19; read-out: AC50): 17.8 µM (inconclusive)

Cc1cscc(C)c1=S
IC50 [3]: > 66 µM (inactive) | IC50 [4]: > 66 µM (inactive)

COc1ccc(C(=O)/C=C/Nc2ccc([N+](=O)[O-])cc2C)cc1OC
EC50 [10]: > 150 µM (not active) | EC50 [11]: 54.6 µM (active)

CC(C)CC(=O)/N=C1\SC2CS(=O)(=O)CC2N1Cc1ccccc1 (stereo unspecified)
EC50 [1]: 75.3 µM (active) | EC50 [2]: 41.1 µM (active)

Oc1ccc(Cc2nccc3cc(O)c(O)cc23)cc1O [PAPAVEROLINE]
AC50 (Cytochrome P450 2C9): inconclusive | AC50 (Cytochrome P450 1A2): 5.01 µM (inconclusive)
